From ChEMBL document CHEMBL5505983, “Design, synthesis, and molecular modeling studies of novel 2-quinolone-1,2,3-triazole-α-aminophosphonates hybrids as dual antiviral and antibacterial agents” (Eur J Med Chem, 2024)
In brackets after ≈: the same amount, converted by molar mass.

Assays:
[1] = Cytotoxicity against human Huh-7 cells; format: toxicity, cell-based
[2] = Cytotoxicity against African green monkey Vero E6 cells; format: toxicity, cell-based, Vero C1008; conditions: chlorocebus sabaeus
Enterococcus faecalis [3] = test: Ratio of MBC to MIC for Enterococcus faecalis; format: functional
Enterococcus faecalis [4] = test: Antibacterial activity against Enterococcus faecalis assessed as reduction in bacterial growth by micro-broth dilution method; format: functional
Pseudomonas aeruginosa [5] = test: Bactericidal activity against Pseudomonas aeruginosa CIP A22; format: functional
Staphylococcus aureus [6] = test: Bactericidal activity against Staphylococcus aureus CIP 54127; format: functional
[7] = Cytotoxicity against human RD cells; format: toxicity, cell-based
[8] = Cytotoxicity against human HeLa-RH cells; format: toxicity, cell-based
Human rhinovirus sp. [9] = test: Antiviral activity against Human rhinovirus A2 infected in human HeLa-RH cells assessed as inhibition of cytopathic effect by microscopy based analysis; format: functional, organism-based
Yellow fever virus = test: Antiviral activity against Yellow fever virus infected in human Huh-7 cells assessed as inhibition of cytopathic effect by microscopy based analysis; format: functional, organism-based
Enterovirus A71 = test: Antiviral activity against human EV71 infected in human RD cells assessed as inhibition of cytopathic effect by microscopy based analysis; format: functional, organism-based; conditions: Enterovirus A
[10] = Selectivity index, ratio of CC50 for human Huh-7 cells to IC50 for Yellow fever virus infected in human Huh-7 cells; format: toxicity, cell-based; conditions: read-out: Ratio CC50/IC50
Staphylococcus aureus [11] = test: Antibacterial activity against Staphylococcus aureus CIP 54127 assessed as reduction in bacterial growth by micro-broth dilution method; format: functional
Human rhinovirus sp. [12] = test: Antiviral activity against Human rhinovirus B14 infected in human HeLa-RH cells assessed as inhibition of cytopathic effect by microscopy based analysis; format: functional, organism-based
Pseudomonas aeruginosa [13] = test: Antibacterial activity against Pseudomonas aeruginosa CIP A22 assessed as reduction in bacterial growth by micro-broth dilution method; format: functional
Enterococcus faecalis [14] = test: Bactericidal activity against Enterococcus faecalis; format: functional
Escherichia coli [15] = test: Antibacterial activity against Escherichia coli CIP 53154 assessed as reduction in bacterial growth by micro-broth dilution method; format: functional
Staphylococcus aureus [16] = test: Ratio of MBC to MIC for Staphylococcus aureus CIP 54127; format: functional
Escherichia coli [17] = test: Bactericidal activity against Escherichia coli CIP 53154; format: functional
Zika virus = test: Antiviral activity against Zika virus infected in african green monkey Vero E6 cells assessed as inhibition of cytopathic effect by microscopy based analysis; format: functional, organism-based; conditions: Vero C1008
Escherichia coli [18] = test: Ratio of MBC to MIC for Escherichia coli CIP 53154; format: functional
Pseudomonas aeruginosa [19] = test: Ratio of MBC to MIC for Pseudomonas aeruginosa CIP A22; format: functional
[20] = Cytotoxicity against African green monkey Vero A cells; format: toxicity, cell-based; conditions: chlorocebus sabaeus
Chikungunya virus = test: Antiviral activity against CHIKV infected in African green monkey Vero A cells assessed as inhibition of cytopathic effect by microscopy based analysis; format: functional, organism-based
[21] = Selectivity index, ratio of CC50 for African green monkey Vero A cells to IC50 for CHIKV infected in African green monkey Vero A cells; format: toxicity; conditions: read-out: Ratio CC50/IC50
[22] = Selectivity index, ratio of CC50 for human HeLa-RH cells to IC50 for Human rhinovirus B14 infected in human HeLa-RH cells; format: toxicity, cell-based; conditions: read-out: Ratio CC50/IC50
[23] = Selectivity index, ratio of CC50 for African green monkey Vero E6 cells to IC50 for Zika virus infected in african green monkey Vero E6 cells; format: toxicity; conditions: read-out: Ratio CC50/IC50
[24] = Selectivity index, ratio of CC50 for human RD cells to IC50 for human EV71 infected in human RD cells; format: toxicity, cell-based; conditions: read-out: Ratio CC50/IC50
Pseudomonas aeruginosa [25] = test: Antibacterial activity against Pseudomonas aeruginosa; format: functional
Staphylococcus aureus [26] = test: Antibacterial activity against Staphylococcus aureus; format: functional

Row | SMILES | CC50 [1] | CC50 [2] | Ratio (Enterococcus faecalis [3]) | MIC (Enterococcus faecalis [4]) | MBC (Pseudomonas aeruginosa [5]) | MBC (Staphylococcus aureus [6]) | CC50 [7] | CC50 [8] | IC50 (Human rhinovirus sp. [9]) | IC50 (Yellow fever virus) | IC50 (Enterovirus A71) | MIC (Staphylococcus aureus [11]) | IC50 (Human rhinovirus sp. [12]) | MIC (Pseudomonas aeruginosa [13]) | MBC (Enterococcus faecalis [14]) | MIC (Escherichia coli [15]) | Ratio (Staphylococcus aureus [16]) | MBC (Escherichia coli [17]) | IC50 (Zika virus) | Ratio (Escherichia coli [18]) | other results
1 | CCOP(=O)(OCC)C(Nc1ccccc1Cl)c1cc(Cn2cc(Cn3c(=O)cc(C)c4cc(F)ccc43)nn2)ccc1O (centres undefined) | 31 µM | 28.1 µM | 1 | 30 µM (≈ 19.2 µg/mL) | 4030 µM (≈ 2580 µg/mL) | 260 µM (≈ 166 µg/mL) | > 100 µM | 12.5 µM | > 0.41 µM | 10.3 µM | > 100 µM | 130 µM (≈ 83.2 µg/mL) | > 100 µM | 4030 µM (≈ 2580 µg/mL) | 30 µM (≈ 19.2 µg/mL) | 2020 µM (≈ 1290 µg/mL) | 2 | 4030 µM (≈ 2580 µg/mL) | > 100 µM | 2 | selectivity ratio [10]: 3.01; Ratio (Pseudomonas aeruginosa [19]): 1; CC50 [20]: 7 µM; IC50 (Chikungunya virus): > 100 µM
2 | CCOP(=O)(OCC)C(Nc1ccc(C)cc1)c1cc(Cn2cc(Cn3c(=O)cc(C)c4cc(Br)ccc43)nn2)ccc1O (centres undefined) | 20 µM | > 33.3 µM | 1 | 60 µM (≈ 40.8 µg/mL) | 1840 µM (≈ 1250 µg/mL) | 460 µM (≈ 313 µg/mL) | > 100 µM | 29.1 µM | > 0.41 µM | > 100 µM | > 100 µM | 460 µM (≈ 313 µg/mL) | 10.7 µM | 1840 µM (≈ 1250 µg/mL) | 60 µM (≈ 40.8 µg/mL) | 460 µM (≈ 313 µg/mL) | 1 | 930 µM (≈ 633 µg/mL) | > 100 µM | 2.02 | selectivity ratio [21]: > 1.78; selectivity ratio [22]: 2.73; Ratio (Pseudomonas aeruginosa [19]): 4; CC50 [20]: > 100 µM; IC50 (Chikungunya virus): 56.1 µM
3 | C[C@@]1(O)[C@H](O)[C@@H](CO)O[C@H]1n1ccc2c(N)ncnc21 [BETA-2'-C-METHYL-7-DEAZA-ADENOSINE] | 50 µM | > 100 µM | – | – | – | – | – | – | – | 16.3 µM | – | – | – | – | – | – | – | – | 20 µM | – | selectivity ratio [10]: 3.07; selectivity ratio [23]: > 5
4 | CCOC(=O)/C=C/[C@H](C[C@@H]1CCNC1=O)NC(=O)[C@@H](CC(=O)[C@@H](NC(=O)c1cc(C)on1)C(C)C)Cc1ccc(F)cc1 [RUPINTRIVIR] | – | – | – | – | – | – | > 100 µM | – | – | – | 1.87 µM | – | – | – | – | – | – | – | – | – | selectivity ratio [24]: > 53.5
5 | COC(=O)C(NC(=O)c1ccccc1)n1cc(Cn2c(=O)cc(C(=O)N[C@H](C)C(=O)OC)c3ccccc32)nn1 (some centres undefined) | – | – | – | – | – | – | – | – | – | – | – | – | – | – | – | – | – | – | – | – | MIC (Pseudomonas aeruginosa [25]): 78 µg/mL (≈ 143 µM); MIC (Staphylococcus aureus [26]): 39 µg/mL (≈ 71.4 µM)
6 | CCOP(=O)(OCC)C(Nc1ccccc1Br)c1cc(Cn2cc(Cn3c(=O)cc(C)c4cc(Br)ccc43)nn2)ccc1O (centres undefined) | 27.9 µM | > 100 µM | 1 | 50 µM (≈ 37.3 µg/mL) | 420 µM (≈ 313 µg/mL) | 420 µM (≈ 313 µg/mL) | > 100 µM | 18.4 µM | > 0.41 µM | 10.4 µM | > 100 µM | 210 µM (≈ 157 µg/mL) | > 100 µM | 420 µM (≈ 313 µg/mL) | 50 µM (≈ 37.3 µg/mL) | 420 µM (≈ 313 µg/mL) | 2 | 850 µM (≈ 634 µg/mL) | > 100 µM | 2.02 | selectivity ratio [21]: 0.18; selectivity ratio [10]: 2.68; Ratio (Pseudomonas aeruginosa [19]): 1; CC50 [20]: 10.1 µM; IC50 (Chikungunya virus): 57.3 µM
7 | CCOP(=O)(OCC)C(Nc1ccccc1Br)c1cc(Cn2cc(Cn3c(=O)cc(C)c4ccccc43)nn2)ccc1O (centres undefined) | 30.1 µM | > 100 µM | 1 | 60 µM (≈ 40 µg/mL) | 3750 µM (≈ 2500 µg/mL) | 120 µM (≈ 80 µg/mL) | 70.2 µM | 45.7 µM | > 1.23 µM | 9.94 µM | > 100 µM | 120 µM (≈ 80 µg/mL) | > 100 µM | 3750 µM (≈ 2500 µg/mL) | 60 µM (≈ 40 µg/mL) | 470 µM (≈ 313 µg/mL) | 1 | 470 µM (≈ 313 µg/mL) | > 100 µM | 1 | selectivity ratio [21]: 2.49; selectivity ratio [10]: 3.03; Ratio (Pseudomonas aeruginosa [19]): 1.99; CC50 [20]: 23.4 µM; IC50 (Chikungunya virus): 9.4 µM
8 | CCOP(=O)(OCC)C(Nc1ccccc1)c1cc(Cn2cc(Cn3c(=O)cc(C)c4ccccc43)nn2)ccc1O (centres undefined) | 51.1 µM | > 100 µM | 1 | 270 µM (≈ 159 µg/mL) | 2130 µM (≈ 1250 µg/mL) | 1070 µM (≈ 629 µg/mL) | > 100 µM | > 100 µM | > 3.7 µM | > 100 µM | > 100 µM | 530 µM (≈ 311 µg/mL) | > 100 µM | 2130 µM (≈ 1250 µg/mL) | 270 µM (≈ 159 µg/mL) | 270 µM (≈ 159 µg/mL) | 2.02 | 530 µM (≈ 311 µg/mL) | > 100 µM | 1.96 | selectivity ratio [21]: > 1.76; Ratio (Pseudomonas aeruginosa [19]): 1; CC50 [20]: > 100 µM; IC50 (Chikungunya virus): 56.9 µM
